In patent US5432270A, “DNA encoding tracheal antimicrobial peptides” (priority 1993, dated 1995):

Key:
Assay in all cases: Minimal inhibitory concentration in 0.25x TSB, microtiter plates
Format in all cases: cell-based
[1] = system: Escherichia coli strain D31; details: E. coli
Experimental: (§1) Antimicrobial activity of TAP (SEQ ID NO: 1) and
(§2) Magainin 2-NH2 (SEQ ID NO: 6). Minimal inhibitory
(§3) concentrations were determined by incubating approximately
(§4) 3.125 μg/ml of the appropriate peptide.
*strain D31 (Steiner, H. D., Hultmark, A., supra, (1981)

[2] = system: Staphylococcus aureus (ATCC 25923); details: 2.5 × 10^4 microbe in 0.25× TSB, overnight 37° C.
Experimental: as §1, §2, §3, §4

[3] = system: Candida albicans (ATCC 14053)
Experimental: as §1, §2, §3, §4

[4] = system: Pseudomonas aeruginosa (ATCC 27853); details: 2.5 × 10^4 microbe in 0.25× TSB, overnight 37° C.
Experimental: as §1, §2, §3, §4

[5] = system: Klebsiella pneumonia (ATCC 13883)
Experimental: as §1, §2, §3, §4

TAP: 38-residue cysteine-rich antimicrobial peptide purified from bovine tracheal mucosa, SEQ ID NO:1 (NPVSCVRNKGICVPIRCPGSMKQIGTCVGRAVKCCRKK)
Antimicrobial activity in vitro (in words) [1]: most active
Minimal inhibitory concentration [2]: 25 to 50 µg/mL
Antimicrobial activity in vitro (in words) ([3]; C. albicans): significant antimicrobial activity
Minimal inhibitory concentration ([3]; Candida albicans ATCC 14053, 2.5 × 10^4 microbe in 0.25× TSB, overnight 37° C.): 6.25 to 12.5 µg/mL
Minimal inhibitory concentration [4]: 25 to 50 µg/mL
Antimicrobial activity in vitro (in words) ([5]; K. pneumonia): most active
Minimal inhibitory concentration ([5]; Klebsiella pneumonia ATCC 13883, 2.5 × 10^4 microbe in 0.25× TSB, overnight 37° C.): 12.5 to 25 µg/mL
